Test results taken from ChEMBL document CHEMBL1201862, “PubChem BioAssay data set” (2004).
Activity calls are given as the source filed them.

Tests used:
[1] = HIV-1 Vif–A3G interaction blockers – biochemical, TR-FRET, GST-Vif 1-94, biotin-A3G peptide, dose response retest, primary screen (AID 1117319); assay type: functional;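 also: TR-FRET signal of purified GST-Vif binding a biotinylated A3G peptide; inhibitors lower the FRET signal by blocking Vif and A3G binding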
[2] = viability loss in human Jurkat cells – cell-based, luminescence, cytotoxicity control for P. falciparum gametocyte viability project, dose response (AID 1117277); assay type: functional;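 also: potency reflects loss of cellular ATP meaning fewer viable cells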
[3] = viability inhibitors of stage V gametocytes – luminescence, dose response (AID 1117278); assay type: functional, cell-based;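 also: gametocytes exposed to compound for 24 hours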
[4] = target: T1, Leucine aminopeptidase (Plasmodium falciparum 3D7, UniProt Q8IL11); experiment: P. falciparum M17LAP inhibitors, primary screen, biochemical, fluorogenic H-Leu-NHMec substrate, 1536-well (AID 1619); assay type: functional
T1 sequence (Q8IL11 whole entry): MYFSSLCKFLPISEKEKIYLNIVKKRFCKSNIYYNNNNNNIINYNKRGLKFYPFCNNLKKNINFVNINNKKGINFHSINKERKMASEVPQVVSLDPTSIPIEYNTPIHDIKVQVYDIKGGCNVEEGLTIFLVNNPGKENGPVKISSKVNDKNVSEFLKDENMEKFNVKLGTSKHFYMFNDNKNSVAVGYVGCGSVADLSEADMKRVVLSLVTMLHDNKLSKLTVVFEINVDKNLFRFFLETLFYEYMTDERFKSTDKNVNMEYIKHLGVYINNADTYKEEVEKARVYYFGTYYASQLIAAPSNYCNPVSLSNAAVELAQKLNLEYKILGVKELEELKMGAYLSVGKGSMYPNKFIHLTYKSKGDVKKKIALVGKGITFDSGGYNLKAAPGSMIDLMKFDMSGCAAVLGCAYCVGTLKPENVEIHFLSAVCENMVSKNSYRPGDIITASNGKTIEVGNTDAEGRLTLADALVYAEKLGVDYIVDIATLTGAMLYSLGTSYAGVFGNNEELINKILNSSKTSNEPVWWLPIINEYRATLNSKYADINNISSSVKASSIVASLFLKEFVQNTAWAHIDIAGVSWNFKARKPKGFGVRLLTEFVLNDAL

[5] = target: Kallikrein-7 (Homo sapiens, UniProt P49862); experiment: Fluorescence Intensity-based biochemical primary high throughput dose response assay to identify activators of kallikrein-7 (K7) zymogen.
[6] = Luminescence Cell-Based Dose Response HTS to Identify Inhibitors of 5'UTR Stem-Loop Driven Prion Protein mRNA Translation in H4 Neuroglioblastoma Cells. [Related pubchem assays: 1827 (Project Summary), 1813 (Primary HTS)]; assay type: functional
[7] = alpha-synuclein stem-loop luciferase translation blockers – H4 neuroglioma cells, luminescence, confirmation (AID 1988); assay type: functional, cell-based
[8] = luciferase reporter signal suppression in cells – H4 neuroglioma cells, luminescence, dose response (AID 1990); assay type: functional, cell-based
[9] = target: Peroxisome proliferator-activated receptor gamma/Nuclear receptor coactivator 3 (Homo sapiens, UniProt P37231); assay type: functional;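 also: agonist potency for raising coactivator recruitment to the receptor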
[10] = target: Peroxisome proliferator-activated receptor gamma/Nuclear receptor coactivator 2 (Homo sapiens, UniProt P37231); assay type: functional;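 also: agonist potency for raising coactivator recruitment to the receptor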
[11] = target: Peroxisome proliferator-activated receptor gamma/Nuclear receptor coactivator 1 (Homo sapiens, UniProt P37231); assay type: functional;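 also: agonist potency as compounds enhance coactivator SRC-1 recruitment to PPARgamma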
[12] = target: T2, NADPH oxidase 1 (Homo sapiens, UniProt Q9Y5S8); assay type: functional, cell-based;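 also: Cell-based assay with luminescence read-out, IC50 derived from inhibitor dose-response curves; intracellular ROS from endogenous NOX1 in intact HT29 colon cancer cells; potency of inhibitors that lower the ROS luminescence signal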
T2 sequence (Q9Y5S8 whole entry): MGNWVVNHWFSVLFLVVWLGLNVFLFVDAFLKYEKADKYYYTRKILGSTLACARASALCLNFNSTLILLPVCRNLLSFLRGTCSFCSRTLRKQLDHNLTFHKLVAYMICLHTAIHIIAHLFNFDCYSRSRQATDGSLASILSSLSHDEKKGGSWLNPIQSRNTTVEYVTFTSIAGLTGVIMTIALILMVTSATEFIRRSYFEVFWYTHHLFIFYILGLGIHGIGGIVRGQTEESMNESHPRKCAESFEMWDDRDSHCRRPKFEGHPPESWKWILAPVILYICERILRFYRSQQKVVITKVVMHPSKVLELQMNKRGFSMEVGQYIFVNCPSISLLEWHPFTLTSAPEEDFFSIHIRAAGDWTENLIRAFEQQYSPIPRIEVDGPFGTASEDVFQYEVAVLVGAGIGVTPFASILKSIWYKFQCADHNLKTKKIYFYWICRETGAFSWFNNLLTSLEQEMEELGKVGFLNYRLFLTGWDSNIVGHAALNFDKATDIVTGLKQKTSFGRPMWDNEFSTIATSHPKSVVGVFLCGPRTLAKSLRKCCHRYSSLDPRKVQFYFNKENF

[13] = target: T3, Protein RecA (Mycobacterium tuberculosis, UniProt P9WHJ3); experiment: Fluorescence Cell-Free Homogeneous Dose Retest to Identify Inhibitors of RecA-Intein Splicing Activity. [Related pubchem assays (depositor defined):AID2097, AID2223, AID489010, AID492950]; assay type: functional
T3 sequence (P9WHJ3 whole entry): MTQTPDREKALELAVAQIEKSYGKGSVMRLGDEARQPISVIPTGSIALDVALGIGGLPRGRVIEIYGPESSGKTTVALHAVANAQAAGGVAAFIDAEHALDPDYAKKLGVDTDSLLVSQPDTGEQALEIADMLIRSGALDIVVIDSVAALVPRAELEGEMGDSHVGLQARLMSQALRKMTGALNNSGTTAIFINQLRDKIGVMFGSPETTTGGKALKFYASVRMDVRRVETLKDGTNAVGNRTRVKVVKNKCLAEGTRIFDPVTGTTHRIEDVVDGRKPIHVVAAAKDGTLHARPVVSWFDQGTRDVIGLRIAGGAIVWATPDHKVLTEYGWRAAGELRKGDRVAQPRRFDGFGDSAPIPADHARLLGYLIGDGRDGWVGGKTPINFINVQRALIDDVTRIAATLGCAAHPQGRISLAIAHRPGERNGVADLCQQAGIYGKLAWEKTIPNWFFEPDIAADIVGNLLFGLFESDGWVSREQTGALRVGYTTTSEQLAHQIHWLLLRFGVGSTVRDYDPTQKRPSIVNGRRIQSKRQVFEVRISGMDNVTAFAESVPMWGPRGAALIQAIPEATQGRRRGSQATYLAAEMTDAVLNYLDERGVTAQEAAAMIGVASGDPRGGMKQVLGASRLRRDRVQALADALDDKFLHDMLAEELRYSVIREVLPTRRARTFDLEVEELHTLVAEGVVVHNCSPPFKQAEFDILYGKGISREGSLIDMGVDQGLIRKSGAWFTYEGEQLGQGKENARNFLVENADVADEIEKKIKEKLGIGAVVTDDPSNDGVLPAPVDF

[14] = target: T4, Replicative DNA helicase DnaB (Mycobacterium tuberculosis, UniProt P9WMR3); experiment: DnaB intein splicing inhibitors, dose response, biochemical, cell-free fluorescence (AID 449749); assay type: functional
T4 sequence (P9WMR3 whole entry): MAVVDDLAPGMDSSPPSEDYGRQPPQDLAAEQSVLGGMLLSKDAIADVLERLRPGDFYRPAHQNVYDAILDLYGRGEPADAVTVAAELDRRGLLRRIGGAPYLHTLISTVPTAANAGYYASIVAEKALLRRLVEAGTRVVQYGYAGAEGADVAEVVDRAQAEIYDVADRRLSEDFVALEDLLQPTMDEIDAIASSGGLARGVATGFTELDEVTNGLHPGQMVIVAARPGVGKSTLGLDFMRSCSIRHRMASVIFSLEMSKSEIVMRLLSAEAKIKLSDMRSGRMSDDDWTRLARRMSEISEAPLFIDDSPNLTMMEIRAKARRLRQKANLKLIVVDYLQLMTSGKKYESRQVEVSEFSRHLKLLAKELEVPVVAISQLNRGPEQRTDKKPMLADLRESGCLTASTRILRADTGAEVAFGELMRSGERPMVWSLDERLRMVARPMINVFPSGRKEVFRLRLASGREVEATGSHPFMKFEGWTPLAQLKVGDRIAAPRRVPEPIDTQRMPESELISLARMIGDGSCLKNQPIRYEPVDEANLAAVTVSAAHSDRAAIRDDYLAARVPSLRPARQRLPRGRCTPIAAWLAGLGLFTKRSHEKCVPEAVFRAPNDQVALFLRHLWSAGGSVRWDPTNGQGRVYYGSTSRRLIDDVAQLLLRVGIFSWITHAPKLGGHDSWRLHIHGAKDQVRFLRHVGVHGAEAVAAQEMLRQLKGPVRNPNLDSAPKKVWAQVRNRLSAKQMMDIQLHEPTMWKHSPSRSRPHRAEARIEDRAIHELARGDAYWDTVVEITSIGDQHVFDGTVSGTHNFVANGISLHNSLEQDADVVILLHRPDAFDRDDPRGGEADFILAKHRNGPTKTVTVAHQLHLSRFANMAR

[15] = target: Cytochrome P450 2C19 (Homo sapiens, UniProt P33261); experiment: Cytochrome panel assay with activity outcomes. Panel member name: p450-cyp2c19 Compounds with AC50 equal or less than 10 uM are considered active; assay type: functional; conditions: read-out: AC50
[16] = Luminescence Cell-Based Dose Response to Identify Activators of 5'UTR Stem-Loop Driven Prion Protein mRNA Translation in H4-C Neuroglioblastoma Cells. [Related pubchem assays: 1829 (Project Summary), 1814 (Primary HTS)]; assay type: functional
[17] = Luminescence Cell-Based Dose Confirmation HTS to Identify Activators of 5'UTR Stem-Loop Driven Alpha-Synuclein mRNA Translation in H4 Neuroglioblastoma Cells. [Related pubchem assays: 1829 (Project Summary), 1814 (Primary HTS)]; assay type: functional
[18] = Luminescence Cell-Based Dose Response HTS to Identify Activators of Luciferase Translation or Activity in H4 […] Cells. [Related pubchem assays: 1829 (Project Summary), 1814 (Primary HTS)]; assay type: functional
[19] = Luminescence Cell-Based Dose Confirmation to Identify Activators of 5'UTR Stem-Loop Driven Alpha-Synuclein mRNA Translation in H4 Neuroglioblastoma Cells. [Related pubchem assays: 1829 (Project Summary), 1814 (Primary HTS)]; assay type: functional
[20] = system: H4; experiment: Luminescence Cell-Based Dose Response HTS to Identify Activators of 5'UTR Stem-Loop Driven Prion Protein mRNA Translation in H4 Neuroglioblastoma Cells. [Related pubchem assays: 1829 (Project Summary), 1814 (Primary HTS)]; assay type: functional; conditions: Homo sapiens
[21] = Luminescence Cell-Based Dose Response to Identify Activators of Luciferase Translation or Activity in H4-C Neuroglioblastoma Cells. [Related pubchem assays: 1829 (Project Summary), 1814 (Primary HTS)]; assay type: functional
[22] = Dd2 malaria parasite growth inhibition potency – SYBR Green, dry powder samples, dose response (AID 1159566); assay type: functional, cell-based;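 also: potency for growth inhibition with lower SYBR green DNA signal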
[23] = growth inhibition of yeast DHODH-expressing 3D7 parasites – SYBR Green, dry powder samples, dose response (AID 1159570); assay type: functional, cell-based;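 also: parasite growth measured after 72 hours of compound exposure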
[24] = growth inhibition of PfATP4-mutant resistant parasites – NITD609-resistant line, SYBR Green, dry powder, dose response (AID 1159571); assay type: functional, cell-based;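 also: parasites synchronized at ring stage by sorbitol before testing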
[25] = P. falciparum Dd2 growth inhibitors, dose response, SYBR Green, cherry-picked samples (AID 1159567); assay type: functional, cell-based
[26] = viability of uninfected HEp-2 cells – cell-based, HTS, cytotoxicity control for RSV inhibitor project, dose response (AID 2410); assay type: functional; conditions: human respiratory syncytial virus

Sequence of Peroxisome proliferator-activated receptor gamma/Nuclear receptor coactivator 2 (P37231 whole entry): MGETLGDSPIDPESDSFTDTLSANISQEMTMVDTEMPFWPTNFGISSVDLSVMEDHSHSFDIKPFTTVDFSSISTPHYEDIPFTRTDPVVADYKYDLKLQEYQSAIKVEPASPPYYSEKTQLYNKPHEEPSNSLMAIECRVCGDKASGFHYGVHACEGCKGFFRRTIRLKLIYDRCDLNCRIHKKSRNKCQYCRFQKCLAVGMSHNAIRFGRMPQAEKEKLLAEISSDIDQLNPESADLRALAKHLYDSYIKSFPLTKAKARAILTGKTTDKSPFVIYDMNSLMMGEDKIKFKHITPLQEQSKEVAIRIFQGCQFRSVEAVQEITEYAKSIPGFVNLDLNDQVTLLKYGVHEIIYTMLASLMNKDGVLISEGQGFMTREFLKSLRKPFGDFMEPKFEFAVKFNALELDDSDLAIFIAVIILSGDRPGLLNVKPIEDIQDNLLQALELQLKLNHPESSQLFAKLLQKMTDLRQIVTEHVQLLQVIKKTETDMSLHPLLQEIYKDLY
Sequence of Peroxisome proliferator-activated receptor gamma/Nuclear receptor coactivator 2 (Q15596 whole entry, further chain): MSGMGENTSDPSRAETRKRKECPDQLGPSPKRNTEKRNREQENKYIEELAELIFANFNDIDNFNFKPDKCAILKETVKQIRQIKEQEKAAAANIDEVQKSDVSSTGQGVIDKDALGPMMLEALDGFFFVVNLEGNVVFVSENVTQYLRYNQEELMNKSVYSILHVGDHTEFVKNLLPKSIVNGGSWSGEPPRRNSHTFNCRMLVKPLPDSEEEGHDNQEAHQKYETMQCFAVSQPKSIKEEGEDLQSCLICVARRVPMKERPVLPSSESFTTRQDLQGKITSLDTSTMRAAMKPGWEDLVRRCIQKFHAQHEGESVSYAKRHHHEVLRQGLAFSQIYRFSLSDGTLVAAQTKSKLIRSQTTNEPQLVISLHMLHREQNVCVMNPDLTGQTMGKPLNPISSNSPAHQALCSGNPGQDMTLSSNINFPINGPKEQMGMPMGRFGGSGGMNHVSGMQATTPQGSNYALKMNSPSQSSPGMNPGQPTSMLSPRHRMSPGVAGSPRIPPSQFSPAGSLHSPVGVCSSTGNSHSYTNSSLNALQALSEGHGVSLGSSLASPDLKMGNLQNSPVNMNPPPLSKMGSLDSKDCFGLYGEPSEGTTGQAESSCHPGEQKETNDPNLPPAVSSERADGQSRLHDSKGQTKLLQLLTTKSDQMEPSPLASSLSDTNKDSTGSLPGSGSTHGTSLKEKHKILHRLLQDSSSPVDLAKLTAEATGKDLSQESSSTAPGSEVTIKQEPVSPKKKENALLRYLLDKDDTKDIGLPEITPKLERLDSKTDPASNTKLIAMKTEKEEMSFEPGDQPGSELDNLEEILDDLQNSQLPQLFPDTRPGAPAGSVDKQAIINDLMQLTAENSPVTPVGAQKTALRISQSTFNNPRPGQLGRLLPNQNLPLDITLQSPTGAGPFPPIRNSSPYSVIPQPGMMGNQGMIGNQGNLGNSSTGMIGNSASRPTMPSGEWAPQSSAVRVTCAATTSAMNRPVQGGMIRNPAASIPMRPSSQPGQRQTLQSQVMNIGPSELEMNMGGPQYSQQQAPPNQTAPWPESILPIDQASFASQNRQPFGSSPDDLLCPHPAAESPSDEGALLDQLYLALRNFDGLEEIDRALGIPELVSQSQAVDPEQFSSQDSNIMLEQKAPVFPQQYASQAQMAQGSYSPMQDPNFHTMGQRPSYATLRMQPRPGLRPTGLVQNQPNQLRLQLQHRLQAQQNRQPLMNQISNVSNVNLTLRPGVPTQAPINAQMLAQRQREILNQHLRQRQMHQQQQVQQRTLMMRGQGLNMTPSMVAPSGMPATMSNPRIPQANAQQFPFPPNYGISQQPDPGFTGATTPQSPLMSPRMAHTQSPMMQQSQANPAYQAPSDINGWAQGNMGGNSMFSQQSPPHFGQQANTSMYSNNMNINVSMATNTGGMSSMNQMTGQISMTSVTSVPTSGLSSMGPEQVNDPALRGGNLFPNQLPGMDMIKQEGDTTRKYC
Sequence of Peroxisome proliferator-activated receptor gamma/Nuclear receptor coactivator 3 (P37231 whole entry): as the sequence (P37231 whole entry) above
Sequence of Peroxisome proliferator-activated receptor gamma/Nuclear receptor coactivator 3 (Q9Y6Q9 whole entry, further chain): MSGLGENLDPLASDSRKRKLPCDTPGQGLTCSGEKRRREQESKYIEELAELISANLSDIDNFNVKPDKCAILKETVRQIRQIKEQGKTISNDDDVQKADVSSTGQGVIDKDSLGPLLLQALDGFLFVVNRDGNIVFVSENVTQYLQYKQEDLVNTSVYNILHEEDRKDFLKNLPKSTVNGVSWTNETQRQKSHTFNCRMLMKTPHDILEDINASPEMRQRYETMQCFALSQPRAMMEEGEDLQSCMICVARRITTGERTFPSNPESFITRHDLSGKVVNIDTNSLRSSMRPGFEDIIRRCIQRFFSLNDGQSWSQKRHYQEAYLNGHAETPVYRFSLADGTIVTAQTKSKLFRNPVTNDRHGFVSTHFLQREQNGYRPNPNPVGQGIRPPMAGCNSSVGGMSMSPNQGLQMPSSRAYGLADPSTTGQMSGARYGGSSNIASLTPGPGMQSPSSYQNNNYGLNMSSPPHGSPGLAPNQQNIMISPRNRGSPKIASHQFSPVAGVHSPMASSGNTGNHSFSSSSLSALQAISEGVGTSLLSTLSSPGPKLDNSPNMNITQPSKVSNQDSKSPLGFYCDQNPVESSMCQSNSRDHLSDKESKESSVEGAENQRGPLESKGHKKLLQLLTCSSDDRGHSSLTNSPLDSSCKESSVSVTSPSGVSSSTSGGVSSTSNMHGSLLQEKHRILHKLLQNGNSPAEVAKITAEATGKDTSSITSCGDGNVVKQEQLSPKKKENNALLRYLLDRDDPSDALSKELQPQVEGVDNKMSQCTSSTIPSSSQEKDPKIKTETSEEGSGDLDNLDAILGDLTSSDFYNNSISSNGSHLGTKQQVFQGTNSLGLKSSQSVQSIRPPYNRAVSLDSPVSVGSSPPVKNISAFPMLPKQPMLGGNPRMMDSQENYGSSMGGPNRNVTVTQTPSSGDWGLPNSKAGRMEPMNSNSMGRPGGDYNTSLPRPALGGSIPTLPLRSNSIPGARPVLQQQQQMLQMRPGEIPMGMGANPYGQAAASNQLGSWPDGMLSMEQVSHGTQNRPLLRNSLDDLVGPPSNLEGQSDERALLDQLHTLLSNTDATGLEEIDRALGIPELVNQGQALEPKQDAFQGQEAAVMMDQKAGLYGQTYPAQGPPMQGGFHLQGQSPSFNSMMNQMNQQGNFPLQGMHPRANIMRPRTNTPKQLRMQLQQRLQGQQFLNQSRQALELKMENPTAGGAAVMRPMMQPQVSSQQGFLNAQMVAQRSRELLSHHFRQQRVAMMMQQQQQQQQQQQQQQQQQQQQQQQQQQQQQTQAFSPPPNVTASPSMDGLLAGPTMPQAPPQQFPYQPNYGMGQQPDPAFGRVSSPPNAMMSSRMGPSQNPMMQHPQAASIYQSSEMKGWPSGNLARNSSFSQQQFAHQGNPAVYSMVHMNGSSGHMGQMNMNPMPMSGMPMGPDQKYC
Sequence of Kallikrein-7 (P49862 whole entry): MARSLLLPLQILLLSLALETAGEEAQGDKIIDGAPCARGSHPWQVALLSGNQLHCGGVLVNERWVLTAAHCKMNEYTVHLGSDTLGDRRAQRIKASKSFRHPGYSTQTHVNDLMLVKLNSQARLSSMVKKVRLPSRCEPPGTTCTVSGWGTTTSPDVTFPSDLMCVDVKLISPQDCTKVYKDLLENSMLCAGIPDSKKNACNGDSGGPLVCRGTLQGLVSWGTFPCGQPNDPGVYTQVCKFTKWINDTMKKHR
Sequence of Cytochrome P450 2C19 (P33261 whole entry): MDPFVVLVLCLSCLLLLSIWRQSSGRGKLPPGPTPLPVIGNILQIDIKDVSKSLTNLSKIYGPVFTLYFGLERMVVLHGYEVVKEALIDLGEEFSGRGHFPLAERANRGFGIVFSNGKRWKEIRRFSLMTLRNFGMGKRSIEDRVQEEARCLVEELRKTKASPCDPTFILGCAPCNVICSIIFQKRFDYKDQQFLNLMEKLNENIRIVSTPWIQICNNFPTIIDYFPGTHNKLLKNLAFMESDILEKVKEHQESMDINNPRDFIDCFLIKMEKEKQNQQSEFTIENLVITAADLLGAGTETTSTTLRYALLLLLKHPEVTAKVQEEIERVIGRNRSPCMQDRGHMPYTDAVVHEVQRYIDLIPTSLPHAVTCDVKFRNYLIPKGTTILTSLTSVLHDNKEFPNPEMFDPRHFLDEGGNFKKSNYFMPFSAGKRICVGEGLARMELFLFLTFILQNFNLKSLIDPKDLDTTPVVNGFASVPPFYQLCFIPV

CCOC(=O)N1CCN(C(=O)C2CCCN(S(=O)(=O)c3ccc(C)cc3)C2)CC1 (stereo unspecified)
IC50 [1]: > 100 µM (active)

CCSc1n[nH]c2nc3nc4c(C)cccc4c-3nn12
IC50 [2]: > 83.3 µM (inactive) | IC50 [3]: > 109 µM (inactive)

O=C(O)c1ccc(/C=N/Nc2ccc(F)cc2F)cc1
IC50 [4]: 99.4 µM (active)

O=C(Nc1nc2ccc([N+](=O)[O-])cc2s1)c1ccco1
IC50 [2]: > 83.2 µM (inactive) | IC50 [3]: > 109 µM (inactive)

COc1ccccc1C1C=C(c2ccc(C)cc2)Nc2nnnn21 (stereo unspecified)
EC50 [5]: 23.5 µM (inactive) | IC50 [1]: > 100 µM (active)

COc1cccc(N2CCN(S(=O)(=O)c3ccc4[nH]c(-c5ccccc5)nc4c3)CC2)c1
IC50 [2]: > 83.3 µM (inactive) | IC50 [3]: > 109 µM (inactive) | EC50 [6]: > 120 µM (not active) | EC50 [7]: > 120 µM (not active) | EC50 [8]: 29.8 µM (active)

NNC(=O)c1cnn(-c2ccccc2)c1-n1cccc1
EC50 [9]: > 79.4 µM (not active) | EC50 [10]: > 79.4 µM (not active) | EC50 [11]: > 79.4 µM (not active)

Cc1ccccc1-c1nc(-c2ccccc2)c(-c2ccccc2)[nH]1
IC50 [12]: > 17 µM (not active)

CCOC(=O)c1c(NC(=O)C(C)Sc2cn(C)c3ccccc23)sc2c1CCC2 (stereo unspecified)
EC50 [9]: 32.3 µM (not active) | EC50 [10]: 29.5 µM (not active) | EC50 [11]: 29.2 µM (not active)

O=C(Oc1cccc(-n2cnnn2)c1)c1sc2ccccc2c1Cl
IC50 [12]: > 17 µM (not active)

COc1ccc(OC(=O)c2sc3ccccc3c2Cl)cc1
IC50 [12]: > 17 µM (not active)

Cc1cc(C)cc(Oc2coc3cc(OC(=O)c4cccs4)ccc3c2=O)c1
EC50 [5]: 66.8 µM (inactive) | EC50 [13]: 18.8 µM (active) | AC50 [14]: 21.2 µM (active) | AC50 [15]: 2.82 µM (inconclusive)

COc1ccc(-c2csc(N3CCSCC3)n2)cc1
EC50 [16]: 0.887 µM (active) | EC50 [17]: 1.64 µM (active) | EC50 [18]: 3.17 µM (active) | EC50 [19]: 0.579 µM (active) | EC50 [20]: 0.112 µM (active) | EC50 [21]: 0.375 µM (active)

C[C@@H]1CN([C@H](C)CO)C(=O)c2cc(C#CCc3ccccc3)cnc2O[C@H]1CN(C)C(=O)C1CCC1
AC50 [22]: 1.88 µM (active) | AC50 [23]: 2.1 µM (active) | AC50 [24]: 1.54 µM (active) | AC50 [25]: 2.18 µM (active)

Cc1cc(/C=C2/C(=O)N(C)C(=S)N2C)c(C)n1C1CC1
EC50 [9]: > 79.4 µM (not active) | EC50 [16]: 0.297 µM (active) | EC50 [10]: > 79.4 µM (not active) | EC50 [18]: < 0.1 µM (inconclusive) | EC50 [11]: > 79.4 µM (not active) | EC50 [19]: 0.343 µM (active) | EC50 [20]: > 120 µM (not active) | CC50 [26]: 40.7 µM (active) | EC50 [21]: 0.337 µM (active)

N#C/C(=C/c1cn(CC(=O)O)c2ccccc12)c1ccc(F)cc1
IC50 [4]: 21.2 µM (active)
